{
  "source": "patent US10980778B2",
  "about": "“Methods for treating multiple osteochondroma (MO)” (Clementia Pharmaceuticals Inc., priority 2016, dated 2021)",
  "key": {"Fsp1-Ext1^CKO mice": {"system": "Fsp1-Ext1^CKO mice", "assay": "Effect of palovarotene on osteochondroma (OC) formation, alcian blue whole-mount skeletal staining of rib bones", "format": "in vivo", "source_text": "Biallelic conditional knock-out (CKO) of Ext1 using a Cre transgene driven by an Fsp1 promotor) (Fsp1-Ext1^CKO in mice leads to the formation of phenotypes characteristic of MO. Fsp1 expression in developing bone is restricted to the perichondrium and periosteum. Perichondrium-targeted Ext1 deletion in mice causes osteochondromatogenesis in long bones, vertebrae and ribs. Fsp1-Ext1^CKO mice appear normal at birth, present mild bone deformity by P (postnatal day) 28 and have normal life span. In these mice, bony protrusions consisting of bony tuberosities with a cartilage cap are first detectable after P14. These protrusions are consistent with the histological features of osteochondromas in human MO. By P28, all animals develop multiple osteochondromas that can be readily observed in whole-mount skeletal preparations. This phenotype supports the relevance of the Fsp1-Ext1^CKO mouse as a preclinical model of MO. It also mimics the findings observed in a previously developed mouse model of MO, the Col2a1-Ext1^CKO mice.\nThe therapeutic effect of palovarotene in MO was tested in the Fsp1-Ext1^CKO mouse model. The CKO mice were treated with palovarotene (1.05 mg/kg) or vehicle by oral gavage daily. Treatment was initiated on day 14 postpartum and continued daily for 4 weeks. The effect of palovarotene on the formation of osteochondromas (OCs) in the mouse model was evaluated using whole-mount skeletal preparation. At end of treatment, the mice were euthanized by CO2 inhalation and the carcasses were eviscerated and fixed in 95% ethanol overnight. The preparations were stained with alcian blue for 3 days, rinsed in 95% ethanol, and incubated in 2% KOH for 1-2 days. Stained preparations were cleaned in 20% glycerol/1% KOH for 14 days and transferred to 50% glycerol/50% ethanol for photography and storage. By examination under a dissecting microscope, an alcian blue-positive protrusion that was clearly distinguishable was considered as an OC. OCs were identified and counted in each of the 24 rib bones from each mouse.\nThe sum of these counts (total number of OCs at the rib bones) and the mean occurrence of response (number of rib bones showing no OCs vs. number of rib bones showing at least one OC) were reported for each treatment group."}, "Fsp1-Ext1CKO mice [1]": {"system": "Fsp1-Ext1CKO mice", "assay": "Crown-rump length in MO mouse model", "format": "in vivo", "experimental": "Crown-rump length, defined as mouse body length from snout to base of the tail, was measured using a ruler in vehicle and palovarotene treated Fsp1-Ext1CKO mice and untreated wild-type (WT) littermates at baseline (Study Day 1) and, 3 and 4 weeks post initiation of palovarotene treatment (Study Day 21 and 28, respectively). As show in FIG. 3, palovarotene treatment had no effect on crown-rump length after 4 weeks of daily oral treatment in Fsp1-Ext1CKO mice compared to vehicle controls."}, "Fsp1-Ext1CKO mice [2]": {"system": "Fsp1-Ext1CKO mice", "assay": "Dose response of palovarotene to inhibit OC formation (P14 and P21 cohorts)", "format": "in vivo", "conditions": "for EC50 at AUC0-24 hr (percent decrease in total OCs at rib and limb bones): extrapolated exposure", "experimental": "Nonclinical pharmacology data: Fsp1-Ext1CKO mice were administered three doses of palovarotene (0.269 mg/kg [low], 0.882 mg/kg [mid], or 1.764 mg/kg [high]) for 28 consecutive days starting treatment at Day 14 postpartum (P14 cohort), or for 21 consecutive days starting at Day 21 postpartum (P21 cohort).\nTo determine the dose exposure response, exposure in this study was extrapolated based on pharmacokinetic data obtained from adult wild-type (WT) mice with the assumption that pharmacokinetics in adult WT mice are similar to juvenile Fsp1-Ext 1CKO mice."}, "[3]": {"assay": "Observed pharmacokinetic parameters, fixed and weight-based dosing regimen", "format": "in vivo, human", "conditions": "for AUC(0-t): human, in vivo, oral; for AUC Ratio (A/P) Mean (SD) / AUC Ratio (A/P) Median / AUC Ratio (A/P) Min / AUC Ratio (A/P) max: observed vs predicted", "experimental": "Table 4 summarizes the pharmacokinetic parameters of mean and median AUC0-24 values for subjects receiving 2.5 mg and 5.0 mg equivalent doses of palovarotene. Skeletally mature subjects received fixed dose regimens, while the skeletally immature subjects <18 years old were dosed via weight adjusted equivalent doses.\nOne other parameter known to impact systemic exposure of palovarotene is food. For the clinical studies, all subjects are instructed to administer study medication at approximately the same time each day, and following a full meal, although the exact amount consumed is not recorded."}, "[4]": {"conditions": "mean occurrence of 24 rib bones, 1.05 mg/kg daily × 28 days, p=0.0039 vs vehicle (Fisher's exact test)"}, "[5]": {"conditions": "PVO 2.5 mg Weight-Adjusted Equivalent"}, "[6]": {"conditions": "PVO 5 mg Weight-Adjusted Equivalent"}},
  "note": "Like-named read-outs stand apart in the source and are kept apart here.",
  "data": [
    {"compound": "CC1(C)CCC(C)(C)c2cc(Cn3cccn3)c(/C=C/c3ccc(C(=O)O)cc3)cc21", "note": "[Palovarotene, 4-[(1E)-2-[5,6,7,8-Tetrahydro-5,5,8,8-tetramethyl-3-(1H-pyrazol-1-ylmethyl)-2-naphthalenyl]-ethenyl]-benzoic acid]", "values": [
      {"measurement": "Total number of OCs at the rib bones Mean (95% CI)", "setting": "Fsp1-Ext1^CKO mice; 1.05 mg/kg daily × 28 days, oral gavage from day 14 postpartum, n=9, vehicle 147.3", "value": "28.33 (23.23-33.43)"},
      {"measurement": "Effect on total number of OCs per rib bone and formation of OCs", "setting": "Fsp1-Ext1^CKO mice; 1.05 mg/kg daily, 4 weeks, vs vehicle", "value": "reduced the total number of OCs per rib bone and prevent the formation of OCs"},
      {"measurement": "Number of rib bones showing at least one OC", "setting": "Fsp1-Ext1^CKO mice; [4]", "value": 16},
      {"measurement": "Number of rib bones showing no OC", "setting": "Fsp1-Ext1^CKO mice; [4]", "value": 8},
      {"measurement": "Cartilage hyperplasia", "setting": "Fsp1-Ext1^CKO mice; summary of the Examples", "value": "reduced cartilage hyperplasia"},
      {"measurement": "Number and size of osteochondromas observed", "setting": "Fsp1-Ext1^CKO mice; summary of the Examples", "value": "reduced the number and size of osteochondromas observed"},
      {"measurement": "Effect on crown-rump length", "setting": "Fsp1-Ext1CKO mice [1]; after 4 weeks of daily oral treatment, compared to vehicle controls", "value": "no effect"},
      {"measurement": "Long bone growth", "setting": "Fsp1-Ext1CKO mice [1]; summary of the Examples", "value": "able to maintain long bone growth"},
      {"measurement": "Normal bone growth in the animal", "setting": "Fsp1-Ext1CKO mice [1]; summary of the Examples", "value": "did not interfere with normal bone growth"},
      {"measurement": "Occurrence of OCs", "setting": "Fsp1-Ext1CKO mice [2]; 0.269, 0.882 or 1.764 mg/kg, 28 days from P14 or 21 days from P21, vs vehicle controls", "value": "inhibited the occurrence of OCs in a dose-dependent manner"},
      {"measurement": "Efficacy P14 cohort compared to P21 cohort", "setting": "Fsp1-Ext1CKO mice [2]; 28 days from P14 vs 21 days from P21", "value": "Greater efficacy was observed with earlier and longer dosing in the P14 cohort"},
      {"measurement": "EC50 at AUC0-24 hr (percent decrease in total OCs at rib and limb bones)", "setting": "Fsp1-Ext1CKO mice [2]; P14 cohort", "value": "57 to 62", "unit": "ng·h/mL"},
      {"measurement": "EC50 at AUC0-24 hr (percent decrease in total OCs at rib and limb bones)", "setting": "Fsp1-Ext1CKO mice [2]; P21 cohort", "value": "125 to 173", "unit": "ng·h/mL"},
      {"measurement": "Observed exposures using weight based dosing compared with fixed dosing", "setting": "[3]; 2.5 mg and 5.0 mg equivalent doses, few subjects in 2.5 mg group", "value": "tended to be lower than fixed dosing"},
      {"measurement": "AUC(0-t)", "setting": "[3]; 2.5 mg, PVO 2.5 mg Fixed Dose, N=4, read-out: AUC0-24 h Mean (SD)", "value": 176, "unit": "ng·h/mL"},
      {"measurement": "AUC(0-t)", "setting": "[3]; 2.5 mg, PVO 2.5 mg Fixed Dose, N=4, read-out: AUC0-24 h Median", "value": 149, "unit": "ng·h/mL"},
      {"measurement": "AUC(0-t)", "setting": "[3]; 2.5 mg, PVO 2.5 mg Fixed Dose, N=4, read-out: AUC0-24 h Min", "value": 107, "unit": "ng·h/mL"},
      {"measurement": "AUC(0-t)", "setting": "[3]; 2.5 mg, PVO 2.5 mg Fixed Dose, N=4, read-out: AUC0-24 h max", "value": 31, "unit": "ng·h/mL"},
      {"measurement": "AUC(0-t)", "setting": "[3]; 2.5 mg, PVO 2.5 mg Weight-Adjusted Equivalent, N=3, read-out: AUC0-24 h Mean (SD)", "value": 98, "unit": "ng·h/mL"},
      {"measurement": "AUC(0-t)", "setting": "[3]; 2.5 mg, PVO 2.5 mg Weight-Adjusted Equivalent, N=3, read-out: AUC0-24 h Median", "value": 78, "unit": "ng·h/mL"},
      {"measurement": "AUC(0-t)", "setting": "[3]; 2.5 mg, PVO 2.5 mg Weight-Adjusted Equivalent, N=3, read-out: AUC0-24 h Min", "value": 37, "unit": "ng·h/mL"},
      {"measurement": "AUC(0-t)", "setting": "[3]; 2.5 mg, PVO 2.5 mg Weight-Adjusted Equivalent, N=3, read-out: AUC0-24 h max", "value": 179, "unit": "ng·h/mL"},
      {"measurement": "AUC(0-t)", "setting": "[3]; 5 mg, PVO 5 mg Fixed Dose, N=15, read-out: AUC0-24 h Mean (SD)", "value": 347, "unit": "ng·h/mL"},
      {"measurement": "AUC(0-t)", "setting": "[3]; 5 mg, PVO 5 mg Fixed Dose, N=15, read-out: AUC0-24 h Median", "value": 320, "unit": "ng·h/mL"},
      {"measurement": "AUC(0-t)", "setting": "[3]; 5 mg, PVO 5 mg Fixed Dose, N=15, read-out: AUC0-24 h Min", "value": 144, "unit": "ng·h/mL"},
      {"measurement": "AUC(0-t)", "setting": "[3]; 5 mg, PVO 5 mg Fixed Dose, N=15, read-out: AUC0-24 h max", "value": 667, "unit": "ng·h/mL"},
      {"measurement": "AUC(0-t)", "setting": "[3]; 5 mg, PVO 5 mg Weight-Adjusted Equivalent, N=6, read-out: AUC0-24 h Mean (SD)", "value": 249, "unit": "ng·h/mL"},
      {"measurement": "AUC(0-t)", "setting": "[3]; 5 mg, PVO 5 mg Weight-Adjusted Equivalent, N=6, read-out: AUC0-24 h Median", "value": 218, "unit": "ng·h/mL"},
      {"measurement": "AUC(0-t)", "setting": "[3]; 5 mg, PVO 5 mg Weight-Adjusted Equivalent, N=6, read-out: AUC0-24 h Min", "value": 139, "unit": "ng·h/mL"},
      {"measurement": "AUC(0-t)", "setting": "[3]; 5 mg, PVO 5 mg Weight-Adjusted Equivalent, N=6, read-out: AUC0-24 h max", "value": 363, "unit": "ng·h/mL"},
      {"measurement": "AUC Ratio (A/P) Mean (SD)", "setting": "[3]; PVO 2.5 mg Fixed Dose", "value": "1.1 (0.7)"},
      {"measurement": "AUC Ratio (A/P) Median", "setting": "[3]; PVO 2.5 mg Fixed Dose", "value": 0.9},
      {"measurement": "AUC Ratio (A/P) Min", "setting": "[3]; PVO 2.5 mg Fixed Dose", "value": 0.6},
      {"measurement": "AUC Ratio (A/P) max", "setting": "[3]; PVO 2.5 mg Fixed Dose", "value": 2.1},
      {"measurement": "AUC Ratio (A/P) Mean (SD)", "setting": "[3]; [5]", "value": "0.8 (0.6)"},
      {"measurement": "AUC Ratio (A/P) Median", "setting": "[3]; [5]", "value": 0.6},
      {"measurement": "AUC Ratio (A/P) Min", "setting": "[3]; [5]", "value": 0.3},
      {"measurement": "AUC Ratio (A/P) max", "setting": "[3]; [5]", "value": 1.4},
      {"measurement": "AUC Ratio (A/P) Mean (SD)", "setting": "[3]; PVO 5 mg Fixed Dose", "value": "1.3 (0.7)"},
      {"measurement": "AUC Ratio (A/P) Median", "setting": "[3]; PVO 5 mg Fixed Dose", "value": 1.1},
      {"measurement": "AUC Ratio (A/P) Min", "setting": "[3]; PVO 5 mg Fixed Dose", "value": 0.6},
      {"measurement": "AUC Ratio (A/P) max", "setting": "[3]; PVO 5 mg Fixed Dose", "value": 2.9},
      {"measurement": "AUC Ratio (A/P) Mean (SD)", "setting": "[3]; [6]", "value": "1.0 (0.3)"},
      {"measurement": "AUC Ratio (A/P) Median", "setting": "[3]; [6]", "value": 0.9},
      {"measurement": "AUC Ratio (A/P) Min", "setting": "[3]; [6]", "value": 0.5},
      {"measurement": "AUC Ratio (A/P) max", "setting": "[3]; [6]", "value": 1.4},
      {"measurement": "AUCA/P ratio", "setting": "[3]; overall, observed vs predicted exposures", "value": "~1"}
    ]}
  ]
}
